# Where two headings read alike, the source gives them in different places.
# Assays:
# CDK9T1 = CDK9T1 (Homo sapiens, UniProt P50750); experiment: Kinase assay CDK9T1 (Table I); assay type: biochemical; settings: read-out: Kinase inhibition, IC50 CDK9T1
# HeLa cells = experiment: 72 h MTT cytotoxicity assay HeLa; assay type: cell-based; settings: Homo sapiens
# Text: (§1) MIT cytotoxicity assay. The compounds of the invention were subjected to a standard cellular proliferation assay using human cell lines. HeLa cells (Human cervix adenocarcinoma cell line, ATCC NO, CCL-2); A549 cells (Human lung carcinoma cells line, ATCC NO, CCL-185); U2OS cells (Human osteosarcoma cell line, ATCC NO, HTB-96); Eca-109 cells (Human esophageal carcinoma cell line); HepG2 (Human hepatocellular liver carcinoma cell line, ATCC NO, HB-8065); K562 cells (Human chronic myelogenous leukemia cell line, ATCC NO, CCL-243); SK-MEL-28 (Human malignant melanoma cell line, ATCC NO, HTB-72); Molt-4 (Human acute lymphoblastic leukemia cell line, ATCC NO, CRL-1582); H460 (Human large cell lung cancer cell line, ATCC NO, HTB-177); MDA-MB-231 (Human breast adenocarcinoma cell line, ATCC NO, HTB-26); MCF7 (Human breast adenocarcinoma cell line, ATCC NO, HTB-22); ACHN (Human renal cell adenocarcinoma cell line, ATCC NO, CRL-1611); PC-3M (Human prostate adenocarcinoma cell line, ATCC NO CRL-1435); HL60 (Human acute promyelocytic leukemia cell line, ATCC NO, CCL-240); THP-1 (Human acute monocytic leukemia, ATCC NO, TIB-202); Jurkat (Human acute T cell leukemia cell line, ATCC NO, CRL-2063); HCT-116 (Human colorectal carcinoma cell line, ATCC NO, CCL-247); HT-29 (Human colorectal adenocarcinoma cell line, ATCC NO, HTB-38™); WI-38 (Human normal lung cell line, ATCC NO, CCL-75); MRC-5 (Human normal lung cell line, ATCC NO, CCL-171).
# (§2) HepG2, MDA-MB-231, WI-38 and MRC-5 cells were obtained from Shanghai Institute of Cell Biology, Chinese Academy of Sciences (Shanghai 200031, China). A549, HeLa, K562, MCF7, ACHN, H460, U2OS, Eca-109, MCF7, HL60, THP-1, Jurkat, HCT-116, HT-29, PC-3M, SK-MEL-28, Molt-4, H460 and […] cells were purchased from ATCC (American Type Culture Collection, USA).
# (§3) Standard 72 h MTT (thiazolye blue; 3-[4,5-dimethylthiazol-2-yl]-2,5-diphenyltetrazolium bromide) assays were performed. Briefly, the cell lines used in this study were recovered and cultured according to the conditions recommended. 4000 cells per well were seeded into 96-well plates according to doubling time and incubated overnight at 37° C. Compounds were prepared in DMSO and a ½ dilution series in 100 μl cell culture media, added to cells (in duplicates) with the final DMSO concentration of 0.025%, and incubated for 72 hrs at 37° C. MTT solution (5 mg/ml) was added at 10 μl per well and incubated in the dark at 37° C. for 4 hr. Culture medium and MTT solution was removed. MTT dye was solubilised with 100 μl per well of DMSO with agitation. Absorbance was read at 562 nm and data analyzed using Sigmoid curve-fitting software Origin 6.0 (MicroCal, LLC, USA) to determine IC50 value.
# A549 cells = experiment: 72 h MTT cytotoxicity assay A549; assay type: cell-based; settings: Homo sapiens; A549, 72 hrs
# Text: as §1, §2, §3
# U2OS cells = experiment: 72 h MTT cytotoxicity assay U2OS; assay type: cell-based; settings: Homo sapiens
# Text: as §1, §2, §3
# Eca-109 cells = experiment: 72 h MTT cytotoxicity assay Eca-109; assay type: cell-based; settings: Homo sapiens; Eca-109, 72 hrs
# Text: as §1, §2, §3
# HepG2 = experiment: 72 h MTT cytotoxicity assay HepG2; assay type: cell-based; settings: Homo sapiens; HepG2, 72 hrs
# Text: as §1, §2, §3
# K562 cells = experiment: 72 h MTT cytotoxicity assay K562; assay type: cell-based; settings: Homo sapiens; K562, 72 hrs
# Text: as §1, §2, §3
# MCF7 = experiment: 72 h MTT cytotoxicity assay MCF7; assay type: cell-based; settings: Homo sapiens; MCF7, 72 hrs
# Text: as §1, §2, §3
# SK-MEL-28-luc = experiment: 72 h MTT cytotoxicity assay SK-MEL-28-luc; assay type: cell-based; settings: Homo sapiens
# Text: as §1, §2, §3
# ACHN-luc = experiment: 72 h MTT cell viability ACHN-luc; assay type: cell-based; settings: Homo sapiens
# Text: as §1, §2, §3
# PC-3M-luc = experiment: 72 h MTT cell viability PC-3M-luc; assay type: cell-based; settings: Homo sapiens
# Text: as §1, §2, §3
# THP-1 = experiment: 72 h MTT cell viability THP-1; assay type: cell-based; settings: Homo sapiens, THP-1; read-out: Cell Viability IC50 THP-1
# Text: as §1, §2, §3
# HCT 116 = experiment: 72 h MTT cell viability HCT 116; assay type: cell-based; settings: Homo sapiens
# Text: as §1, §2, §3
# HT-29 = experiment: 72 h MTT cell viability HT-29; assay type: cell-based; settings: Homo sapiens, read-out: Cell Viability IC50 HT-29
# Text: as §1, §2, §3
# WI-38 = experiment: 72 h MTT cell viability WI-38 (normal lung); assay type: cell-based; settings: Homo sapiens; WI-38, normal lung cell line
# Text: as §1, §2, §3
# Chain of CDK9T1 (P50750 whole entry): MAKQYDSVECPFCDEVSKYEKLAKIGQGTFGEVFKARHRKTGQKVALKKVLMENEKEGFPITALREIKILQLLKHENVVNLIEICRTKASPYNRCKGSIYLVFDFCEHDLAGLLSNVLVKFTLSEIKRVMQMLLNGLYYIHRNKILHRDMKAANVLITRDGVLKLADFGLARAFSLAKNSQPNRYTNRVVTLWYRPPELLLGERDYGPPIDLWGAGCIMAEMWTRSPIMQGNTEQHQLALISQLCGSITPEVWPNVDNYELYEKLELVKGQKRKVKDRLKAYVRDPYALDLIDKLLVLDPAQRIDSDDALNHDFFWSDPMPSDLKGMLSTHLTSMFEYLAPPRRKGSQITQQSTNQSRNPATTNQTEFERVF
# Chain of CDK9T1 (O60563 whole entry partner): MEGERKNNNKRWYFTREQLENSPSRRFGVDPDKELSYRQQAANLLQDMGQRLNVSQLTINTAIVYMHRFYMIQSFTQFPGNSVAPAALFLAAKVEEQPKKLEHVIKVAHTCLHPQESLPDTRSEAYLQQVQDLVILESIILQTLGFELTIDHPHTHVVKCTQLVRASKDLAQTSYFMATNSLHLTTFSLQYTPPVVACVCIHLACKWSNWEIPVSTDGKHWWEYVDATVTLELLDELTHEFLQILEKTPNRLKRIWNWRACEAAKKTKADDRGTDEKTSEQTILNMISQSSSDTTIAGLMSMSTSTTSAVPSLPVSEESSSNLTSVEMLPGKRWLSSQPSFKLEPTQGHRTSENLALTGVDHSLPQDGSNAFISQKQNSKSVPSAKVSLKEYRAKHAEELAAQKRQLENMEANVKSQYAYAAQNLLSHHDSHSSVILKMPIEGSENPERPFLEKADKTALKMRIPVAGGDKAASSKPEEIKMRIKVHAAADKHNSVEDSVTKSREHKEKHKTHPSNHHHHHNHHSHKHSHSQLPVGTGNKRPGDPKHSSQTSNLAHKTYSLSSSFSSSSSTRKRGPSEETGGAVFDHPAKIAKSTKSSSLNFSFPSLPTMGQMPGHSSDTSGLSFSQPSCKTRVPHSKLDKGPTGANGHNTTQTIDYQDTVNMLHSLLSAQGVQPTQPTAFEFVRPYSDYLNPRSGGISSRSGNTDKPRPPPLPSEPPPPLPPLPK
Compound,IC50 (CDK9T1),IC50 (HeLa cells),IC50 (A549 cells),IC50 (U2OS cells),IC50 (Eca-109 cells),IC50 (HepG2),IC50 (K562 cells),IC50 (MCF7),IC50 (SK-MEL-28-luc),IC50 (ACHN-luc),IC50 (PC-3M-luc),IC50 (THP-1),"IC50 (HCT 116; HCT116, Table III, read-out: Cellular effect in mammalian cells IC50 HCT116)",IC50 (HT-29),IC50 (WI-38),IC50 (HCT 116; read-out: Cell Viability IC50 HCT 116)
"CCn1cc(-c2ccnc(Nc3cccc(S(N)(=O)=O)c3)n2)c2cccnc21 [Compound 18, 3-(4-(1-Ethyl-1H-pyrrolo[2,3-b]pyridin-3-yl)pyrimidin-2-ylamino)benzenesulfonamide]",14 nM,1700 nM,1210 nM,3070 nM,11700 nM,680 nM,6690 nM,710 nM,8590 nM,2980 nM,3550 nM,5370 nM,2100 nM,810 nM,11100 nM,–
"CCCn1cc(-c2ccnc(Nc3ccc(S(N)(=O)=O)cc3)n2)c2ccncc21 [Compound 112, 4-(4-(1-Propyl-1H-pyrrolo[2,3-c]pyridin-3-yl)pyrimidin-2-ylamino)benzenesulfonamide]",0.7 nM,0.4 nM,30 nM,10 nM,10 nM,470 nM,1.1 nM,1.4 nM,3.8 nM,37 nM,27 nM,4 nM,–,50 nM,> 10000 nM,5 nM
